Results from patent US8546377B2 (AbbVie Inc., priority 2009, dated 2013).
Like-named read-outs stand apart in the source and are kept apart here.

Key:
5HT2B receptors = biological target: T1, 5HT2B receptors (Homo sapiens, UniProt P41595); experiment: Human 5-HT2B functional assay in CHO-K1 cells (calcium flux, FLIPR); assay type: cell-based
T1 construct: expressed in transfected cells; host or cells: CHO-K1 cells
Outline: (§1)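 Frozen CHO-K1 cells over-expressing receptor, serum-starved overnight, loaded with Ca4 dye plus 2.5 mM probenecid for 60 min at room temperature. FLIPR fluorescence (ex 480/em 530 nm, 25° C) recorded 3 min after compound addition; 6-point 1:10 series from 10 μM, 0.2% DMSO. Response normalized to serotonin, 4-parameter fit gives EC50; Emax as % of serotonin.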

5HT2C receptors = biological target: T2, 5HT2C receptors (Homo sapiens, UniProt P28335); experiment: Human 5-HT2C functional assay in CHO-K1 cells (calcium flux, FLIPR); assay type: cell-based; set-up: expressed in transfected cells; host or cells: CHO-K1 cells
T2 sequence (P28335 33-458): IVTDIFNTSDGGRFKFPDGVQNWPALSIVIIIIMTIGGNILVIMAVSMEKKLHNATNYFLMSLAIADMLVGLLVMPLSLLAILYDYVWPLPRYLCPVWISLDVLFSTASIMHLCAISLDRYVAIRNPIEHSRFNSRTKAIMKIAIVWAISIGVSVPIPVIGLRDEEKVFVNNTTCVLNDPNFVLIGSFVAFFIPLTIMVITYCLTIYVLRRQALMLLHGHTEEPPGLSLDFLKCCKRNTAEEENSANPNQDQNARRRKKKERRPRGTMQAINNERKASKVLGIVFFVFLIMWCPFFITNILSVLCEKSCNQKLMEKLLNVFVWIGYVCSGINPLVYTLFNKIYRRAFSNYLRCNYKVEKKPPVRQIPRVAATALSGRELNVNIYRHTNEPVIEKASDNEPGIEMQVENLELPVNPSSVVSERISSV
Outline: as §1

[1] = CHO-K1 cells over-expressing 5HT2B, calcium flux, read-out: EC50 (μM), 5-HT2B Agonist Activity
[2] = CHO-K1 cells over-expressing 5HT2C, calcium flux, read-out: EC50 (μM), 5-HT2c Agonist Activity
[3] = CHO-K1 cells, percentage relative to the effect of serotonin, read-out: Emax (%), 5-HT2c Agonist Activity
[4] = CHO-K1 cells, percentage relative to the effect of serotonin, read-out: Emax (%), 5-HT2B Agonist Activity
[5] = CHO-K1, read-out: Emax (%), 5-HT2B Agonist Activity
[6] = CHO-K1, read-out: Emax (%), 5-HT2c Agonist Activity
[7] = CHO-K1, read-out: Emax (%), 5-HT2c Agonist Activity, CHO-K1 cells, percentage relative to the effect of serotonin

T1 sequence (P41595 whole entry): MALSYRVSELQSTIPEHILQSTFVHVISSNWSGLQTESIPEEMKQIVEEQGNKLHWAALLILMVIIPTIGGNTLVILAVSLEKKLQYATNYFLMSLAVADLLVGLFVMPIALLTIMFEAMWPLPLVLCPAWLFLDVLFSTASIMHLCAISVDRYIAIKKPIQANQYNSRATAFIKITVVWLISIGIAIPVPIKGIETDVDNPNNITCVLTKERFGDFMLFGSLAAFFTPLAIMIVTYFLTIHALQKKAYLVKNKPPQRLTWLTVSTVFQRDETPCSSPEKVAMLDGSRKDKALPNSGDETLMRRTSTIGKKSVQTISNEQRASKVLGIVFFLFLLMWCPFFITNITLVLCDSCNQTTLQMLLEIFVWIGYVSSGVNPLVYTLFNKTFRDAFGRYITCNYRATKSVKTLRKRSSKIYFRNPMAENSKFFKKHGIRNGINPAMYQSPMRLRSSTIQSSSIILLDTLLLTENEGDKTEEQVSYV

Row | EC50 (5HT2B receptors; [1]) | EC50 (5HT2C receptors; [2]) | Emax (5HT2C receptors; [3]) | Emax (5HT2B receptors; [4]) | Emax (5HT2C receptors; [6]) | SMILES | Emax (5HT2B receptors; [5]) | EC50 (5HT2B receptors) | EC50 (5HT2C receptors) | Emax (5HT2C receptors; [7])
1 | > 10 µM | 0.2 µM | > 120% | – | – | Oc1cccc(-c2ccc3c(c2)N2CCNC[C@@H]2CCO3)c1 [Example 201, 3-[(4aS)-2,3,4,4a,5,6-hexahydro-1H-pyrazino[2,1-d][1,5]benzoxazepin-10-yl]phenol] | – | – | – | –
2 | 0.3 µM | 0.007 µM | > 120% | 55% | – | CS(=O)(=O)c1ccccc1-c1ccc2c(c1)N1CCNC[C@@H]1CCO2 [Example 195, (4aS)-10-[2-(methylsulfonyl)phenyl]-2,3,4,4a,5,6-hexahydro-1H-pyrazino[2,1-d][1,5]benzoxazepine] | – | – | – | –
3 | 1 µM | 0.002 µM | 100% | 10% | – | Cc1cccc(CCOc2ccc3c(c2)N2CCNC[C@@H]2CC(=O)N3)c1 [Example 176, (4aS)-10-[2-(3-methylphenyl)ethoxy]-1,2,3,4,4a,5-hexahydropyrazino[1,2-a][1,5]benzodiazepin-6(7H)-one] | – | – | – | –
4 | 1 µM | 0.04 µM | – | – | 90% | FCCN1CCN2c3ccccc3OCC[C@H]2C1 [Example 240, (4aS)-3-(2-fluoroethyl)-2,3,4,4a,5,6-hexahydro-1H-pyrazino[2,1-d][1,5]benzoxazepine] | 10% | – | – | –
5 | 0.6 µM | 0.09 µM | – | – | 90% | FCCN1CCN2c3ccccc3OCC[C@@H]2C1 [Example 269, (4aR)-3-(2-fluoroethyl)-2,3,4,4a,5,6-hexahydro-1H-pyrazino[2,1-d][1,5]benzoxazepine] | 50% | – | – | –

Continued, compound first:

Row | SMILES | EC50 (5HT2B receptors; [1]) | EC50 (5HT2C receptors; [2]) | Emax (5HT2C receptors; [3]) | Emax (5HT2B receptors; [4]) | Emax (5HT2C receptors; [6]) | Emax (5HT2B receptors; [5]) | EC50 (5HT2B receptors) | EC50 (5HT2C receptors) | Emax (5HT2C receptors; [7])
6 | CN1C(=O)CC2CNCCN2c2cc(CCc3ccccc3)ccc21 (stereo not shown) [Example 151, 7-methyl-10-(2-phenylethyl)-1,2,3,4,4a,5-hexahydropyrazino[1,2-a][1,5]benzodiazepin-6(7H)-one] | 5 µM | 0.07 µM | 110% | 30% | – | – | – | – | –
7 | O=C1C[C@H]2CNCCN2c2cc(OCCc3cccc(Cl)c3)ccc2N1 [Example 175, (4aS)-10-[2-(3-chlorophenyl)ethoxy]-1,2,3,4,4a,5-hexahydropyrazino[1,2-a][1,5]benzodiazepin-6(7H)-one] | 0.5 µM | 0.001 µM | > 120% | 20% | – | – | – | – | –
8 | Clc1cc(Cl)c2c(c1)N1CCNC[C@@H]1CCO2 [Example 225, (4aS)-8,10-dichloro-2,3,4,4a,5,6-hexahydro-1H-pyrazino[2,1-d][1,5]benzoxazepine] | – | – | – | – | – | 50% | 0.04 µM | 0.01 µM | 70%
9 | Fc1ccc2c(c1)OCC[C@@H]1CNCCN21 [Example 256, (4aR)-9-fluoro-2,3,4,4a,5,6-hexahydro-1H-pyrazino[2,1-d][1,5]benzoxazepine] | – | – | – | – | – | 80% | 0.06 µM | 0.001 µM | 90%
10 | C[C@H](Oc1ccc2c(c1)N1CCNCC1CC(=O)N2)c1ccccc1F (stereo partly drawn) [Example 162, 10-[(1S)-1-(2-fluorophenyl)ethoxy]-1,2,3,4,4a,5-hexahydropyrazino[1,2-a][1,5]benzodiazepin-6(7H)-one] | 1 µM | 0.07 µM | > 120% | 20% | – | – | – | – | –
11 | C[C@@H](Cc1ccccc1)Oc1ccc2c(c1)N1CCNC[C@@H]1CC(=O)N2 [Example 163, (4aS)-10-{[(2S)-1-phenylpropan-2-yl]oxy}-1,2,3,4,4a,5-hexahydropyrazino[1,2-a][1,5]benzodiazepin-6(7H)-one] | > 10 µM | 0.07 µM | > 120% | – | – | – | – | – | –
12 | CC(C)c1cccc(-c2ccc3c(c2)N2CCNCC2CC(=O)N3)c1 (stereo not shown) [Example 92, 10-(3-isopropylphenyl)-1,2,3,4,4a,5-hexahydropyrazino[1,2-a][1,5]benzodiazepin-6(7H)-one] | > 10 µM | 0.02 µM | > 120% | – | – | – | – | – | –
13 | Cn1cc(-c2ccc3c(c2)N2CCNCC2CC(=O)N3)cn1 (stereo not shown) [Example 60, 10-(1-methyl-1H-pyrazol-4-yl)-1,2,3,4,4a,5-hexahydropyrazino[1,2-a][1,5]benzodiazepin-6(7H)-one] | 3 µM | 0.4 µM | > 120% | 50% | – | – | – | – | –
